Experimental data: patent publication US10681909B2, “Herbicidal triazoles” (FMC Corporation, priority 2014, dated 2020)

Experiments:
foxtail, giant [1] = test: Test A preemergence; format: in vivo, Setaria faberii; conditions: 0 to 100 scale (0 no effect, 100 complete control)
Text: (§1) Seeds of plant species selected from barnyardgrass (Echinochloa crus-galli), crabgrass, large (large crabgrass, Digitaria sanguinalis), kochia (Kochia scoparia), ragweed (common ragweed, Ambrosia elatior), foxtail, giant (giant foxtail, Setaria faberii), morningglory (Ipomoea spp.), pigweed (Amaranthus retroflexus), velvetleaf (Abutilon theophrasti), ryegrass, Italian (Italian ryegrass, Lolium multiflorum), wheat (Triticum aestivum), and corn (Zea mays) were planted into a blend of loam soil and sand and treated preemergence with a directed soil spray using test chemicals formulated in a non-phytotoxic solvent mixture which included a surfactant. At the same time, plants selected from these crop and weed species and also blackgrass (Alopecurus myosuroides), and galium (catchweed bedstraw, Galium aparine), were planted in pots containing the same blend of loam soil and sand and treated with postemergence applications of test chemicals formulated in the same manner. Plants ranged in height from 2 to 10 cm and were in the one- to two-leaf stage for the postemergence treatment. […] A dash (-) response means no test result.

wheat [2] = test: Test A preemergence; format: in vivo, Triticum aestivum; conditions: 0 to 100 scale (0 no effect, 100 complete control)
Text: as §1

pigweed [3] = test: Test A preemergence; format: in vivo, Amaranthus retroflexus; conditions: 0 to 100 scale (0 no effect, 100 complete control)
Text: as §1

barnyardgrass [4] = test: Test A postemergence; format: in vivo, Echinochloa crus-galli; conditions: 0 to 100 scale (0 no effect, 100 complete control), approx. 10 d
Text: as §1

morningglory [5] = test: Test A postemergence; format: in vivo, Ipomoea spp.; conditions: 0 to 100 scale (0 no effect, 100 complete control), approx. 10 d
Text: as §1

corn [6] = test: Test A postemergence; format: in vivo, Zea mays; conditions: 0 to 100 scale (0 no effect, 100 complete control), approx. 10 d
Text: as §1

sedge, umbrella = test: Test B flooded paddy test; format: in vivo, Cyperus difformis; conditions: applied to paddy water at 2-leaf stage, visual rating after 13 to 15 d, scale 0 (no effect) to 100 (complete control)
Text: (§2) At time of treatment, test pots were flooded to 3 cm above the soil surface, treated by application of test compounds directly to the paddy water, and then maintained at that water depth for the duration of the test. Treated plants and controls were maintained in a greenhouse for 13 to 15 d, after which time all species were compared to controls and visually evaluated. […] A dash (-) response means no test result.

wheat [7] = test: Test A postemergence; format: in vivo, Triticum aestivum; conditions: 0 to 100 scale (0 no effect, 100 complete control), approx. 10 d
Text: as §1

crabgrass, large [8] = test: Test A postemergence; format: in vivo, Digitaria sanguinalis; conditions: 0 to 100 scale (0 no effect, 100 complete control), approx. 10 d
Text: as §1

morningglory [9] = test: Test A preemergence; format: in vivo, Ipomoea spp.; conditions: 0 to 100 scale (0 no effect, 100 complete control)
Text: as §1

rice = test: Test B flooded paddy test; format: in vivo, Oryza sativa; conditions: applied to paddy water at 2-leaf stage, visual rating after 13 to 15 d, scale 0 (no effect) to 100 (complete control)
Text: as §2

pigweed [10] = test: Test A postemergence; format: in vivo, Amaranthus retroflexus; conditions: 0 to 100 scale (0 no effect, 100 complete control), approx. 10 d
Text: as §1

crabgrass, large [11] = test: Test A preemergence; format: in vivo, Digitaria sanguinalis; conditions: 0 to 100 scale (0 no effect, 100 complete control)
Text: as §1

velvetleaf [12] = test: Test A postemergence; format: in vivo, Abutilon theophrasti; conditions: 0 to 100 scale (0 no effect, 100 complete control), approx. 10 d
Text: as §1

barnyardgrass [13] = test: Test A preemergence; format: in vivo, Echinochloa crus-galli; conditions: 0 to 100 scale (0 no effect, 100 complete control)
Text: as §1

barnyardgrass [14] = test: Test B flooded paddy test; format: in vivo, Echinochloa crus-galli; conditions: applied to paddy water at 2-leaf stage, visual rating after 13 to 15 d, scale 0 (no effect) to 100 (complete control)
Text: as §2

corn [15] = test: Test A preemergence; format: in vivo, Zea mays; conditions: 0 to 100 scale (0 no effect, 100 complete control)
Text: as §1

ducksalad = test: Test B flooded paddy test; format: in vivo, Heteranthera limosa; conditions: applied to paddy water at 2-leaf stage, visual rating after 13 to 15 d, scale 0 (no effect) to 100 (complete control)
Text: as §2

foxtail, giant [16] = test: Test A postemergence; format: in vivo, Setaria faberii; conditions: 0 to 100 scale (0 no effect, 100 complete control), approx. 10 d
Text: as §1

velvetleaf [17] = test: Test A preemergence; format: in vivo, Abutilon theophrasti; conditions: 0 to 100 scale (0 no effect, 100 complete control)
Text: as §1

Row | Compound | Plant response rating, Foxtail, Giant (foxtail, giant [1]; 125 g ai/ha) | Plant response rating, Foxtail, Giant (foxtail, giant [1]; 500 g ai/ha, approx. 10 d) | Plant response rating, Wheat (wheat [2]; 125 g ai/ha) | Plant response rating, Wheat (wheat [2]; 500 g ai/ha, approx. 10 d) | Plant response rating, Pigweed (pigweed [3]; 125 g ai/ha) | Plant response rating, Pigweed (pigweed [3]; 500 g ai/ha, approx. 10 d) | Plant response rating, Barnyardgrass (barnyardgrass [4]; 125 g ai/ha) | Plant response rating, Barnyardgrass (barnyardgrass [4]; 500 g ai/ha) | Plant response rating, Morningglory (morningglory [5]; 125 g ai/ha) | Plant response rating, Morningglory (morningglory [5]; 500 g ai/ha) | Plant response rating, Corn (corn [6]; 125 g ai/ha) | Plant response rating, Corn (corn [6]; 500 g ai/ha) | Plant response rating, Wheat (wheat [7]; 125 g ai/ha) | Plant response rating, Wheat (wheat [7]; 500 g ai/ha) | Plant response rating, Crabgrass, Large (crabgrass, large [8]; 125 g ai/ha) | Plant response rating, Crabgrass, Large (crabgrass, large [8]; 500 g ai/ha) | Plant response rating, Morningglory (morningglory [9]; 125 g ai/ha) | Plant response rating, Morningglory (morningglory [9]; 500 g ai/ha, approx. 10 d) | Plant response rating, Pigweed (pigweed [10]; 125 g ai/ha) | Plant response rating, Pigweed (pigweed [10]; 500 g ai/ha) | other results
1 | CCc1nc(-c2ccc(F)cc2)nn1Cc1ccnc(C(F)(F)F)c1 [Compound 2] | 80 | 100 | 0 | 20 | 100 | 100 | 20 | 90 | 70 | 90 | 20 | 90 | 0 | 70 | 70 | 100 | 0 | 60 | 100 | 100 | Plant response rating, Sedge, Umbrella, Flood (sedge, umbrella; 125 g ai/ha): 75; Plant response rating, Rice, Flood (rice; 125 g ai/ha): 20; Plant response rating, Crabgrass, Large (crabgrass, large [11]; 125 g ai/ha): 100; Plant response rating, Crabgrass, Large (crabgrass, large [11]; 500 g ai/ha, approx. 10 d): 100; Plant response rating, Velvetleaf (velvetleaf [12]; 125 g ai/ha): 30; Plant response rating, Velvetleaf (velvetleaf [12]; 500 g ai/ha): 100; Plant response rating, Barnyardgrass (barnyardgrass [13]; 125 g ai/ha): 0; Plant response rating, Barnyardgrass (barnyardgrass [13]; 500 g ai/ha, approx. 10 d): 80; Plant response rating, Barnyardgrass, Flood (barnyardgrass [14]; 125 g ai/ha): 0; Plant response rating, Corn (corn [15]; 125 g ai/ha): 0; Plant response rating, Corn (corn [15]; 500 g ai/ha, approx. 10 d): 0; Plant response rating, Ducksalad, Flood (ducksalad; 125 g ai/ha): 30; Plant response rating, Foxtail, Giant (foxtail, giant [16]; 125 g ai/ha): 70; Plant response rating, Foxtail, Giant (foxtail, giant [16]; 500 g ai/ha): 90; Plant response rating, Velvetleaf (velvetleaf [17]; 125 g ai/ha): 0; Plant response rating, Velvetleaf (velvetleaf [17]; 500 g ai/ha, approx. 10 d): 40
2 | Cc1nc(-c2ccc(C(F)(F)F)cc2)nn1Cc1ccnc(C(F)(F)F)c1 [Compound 7] | 80 | 100 | 0 | 10 | 90 | 100 | 40 | 80 | 50 | 80 | 30 | 50 | 20 | 50 | 50 | 90 | 10 | 60 | 100 | 100 | Plant response rating, Sedge, Umbrella, Flood (sedge, umbrella; 250 g ai/ha): 85; Plant response rating, Rice, Flood (rice; 250 g ai/ha): 0; Plant response rating, Crabgrass, Large (crabgrass, large [11]; 125 g ai/ha): 90; Plant response rating, Crabgrass, Large (crabgrass, large [11]; 500 g ai/ha, approx. 10 d): 100; Plant response rating, Velvetleaf (velvetleaf [12]; 125 g ai/ha): 80; Plant response rating, Velvetleaf (velvetleaf [12]; 500 g ai/ha): 100; Plant response rating, Barnyardgrass (barnyardgrass [13]; 125 g ai/ha): 20; Plant response rating, Barnyardgrass (barnyardgrass [13]; 500 g ai/ha, approx. 10 d): 80; Plant response rating, Barnyardgrass, Flood (barnyardgrass [14]; 250 g ai/ha): 0; Plant response rating, Corn (corn [15]; 125 g ai/ha): 10; Plant response rating, Corn (corn [15]; 500 g ai/ha, approx. 10 d): 10; Plant response rating, Ducksalad, Flood (ducksalad; 250 g ai/ha): 0; Plant response rating, Foxtail, Giant (foxtail, giant [16]; 125 g ai/ha): 60; Plant response rating, Foxtail, Giant (foxtail, giant [16]; 500 g ai/ha): 90; Plant response rating, Velvetleaf (velvetleaf [17]; 125 g ai/ha): 20; Plant response rating, Velvetleaf (velvetleaf [17]; 500 g ai/ha, approx. 10 d): 70
